Source: patent US20120095445A1, “METHODS AND COMPOSITIONS FOR INCREASING TRICHOGENIC POTENCY OF DERMAL CELLS” (Aderans Research Institute, Inc., priority 2009, published 2012)

Tests used:
[1] = test system: mouse neonatal dermal cells; assay: Patch assay with mouse neonatal dermal cell culture; type: cell-based
Protocol: (§1) Trichogenic activity of populations of dermal cells was determined by the Aderans Hair Patch Assay™ (Zheng, Y., J Invest Dermatol, 124: 867-876 (2005)). In this assay dissociated dermal and epidermal cells are implanted into the dermis or the subcutis of an immunoincompetent mouse. Using mouse newborn skin cells, new hair follicles typically form in this assay within 8 to 10 days. The newly formed follicle manifests normal hair shafts, mature sebaceous glands, and a natural hair cycle. Although normal cycling hair follicles are formed in this assay, the assay primarily measures the ability of cells or combinations of cells to form new follicles. In the classical Patch assay mouse neonatal dermal cells were assayed in conjunction with mouse neonatal epidermal cells. In a modification of that assay human adult dermal cells are assayed in the presence of mouse newborn epidermal cells.
In addition to cultured human cells, the SHH pathway agonist B was added to mouse neonatal dermal cell culture.

dermal cells = assay: Growth and yield of dermal cells in culture (population doubling time, number of cells); type: cell-based, human
Text: FIG. 3A is a graph showing the population doubling time of dermal cells treated with the indicated amount of a Shh pathway agonist. FIG. 3B is a graph showing number of cells (millions) of dermal cells treated with Shh pathway agonist at confluence.
FIG. 5A is a graph showing the average number of cells (millions) in flasks using dermal cells treated with the indicated amount of Shh pathway agonist after one passage in culture. FIG. 5B is a graph showing the average number of cells (millions) in flasks using dermal cells treated with the indicated amount of Shh pathway agonist after two passages in culture. FIG. 5C is a graph of population doubling time (days) for dermal cells treated with the indicated amount of Shh pathway agonist after one passage in culture. FIG. 5D is a graph of population doubling time (days) for dermal cells treated with the indicated amount of Shh pathway agonist after two passages in culture.

human adult dermal cells = assay: Aderans Hair Patch Assay (hybrid patch assay) with cultured human adult dermal cells; type: cell-based
Text: as §1, with “can be” for “was”, “by using” for “by”, “Mouse” for “In the classical Patch assay mouse neonatal”, “are” for “were”, “cells.” for “cells. In a modification of that assay human adult dermal cells are assayed in the presence of mouse newborn epidermal cells.”
as §1
In the initial study four different concentrations of one of the Curls, Inc. Shh pathway agonist (agonist A-CUR-0201365) were used, 0, 0.005, 0.05 and 0.125 ug/ml (FIG. 2A). […] The number of hair follicles formed in the hair patch assay is greater when the cells are grown in the presence of the Shh pathway agonist.
To investigate if Shh pathway agonist can increase cell inductivity with short-term treatment (7 days before harvest); 3 patient samples were tested using agonist B. For each sample, the cells were treated with 0, 0.0125, 0.0375, 0.05 and 0.15 ug/ml of Shh pathway agonist B at the passage P1 or P2. P1 and P2 cells were then harvested after approximately 7 days and analyzed in the hybrid patch assay. […] Cells were treated for that 7 day period only, but not treated prior to that.

human fetal cells = assay: Aderans Hair Patch Assay with human fetal cell cultures; type: cell-based; conditions: for effect on hair number: FIG. 9
Text: FIG. 7 is a graph of the number of hair follicles formed from human fetal cell cultures in the Aderans Hair Patch Assay™ versus the indicated cell culture passage P0, P1, P2 or P3 in cells culture with a Shh pathway agonist. Each passage has a pair of columns with the left column corresponding to results obtained without treating the cells with an agonist and a right column showing results with cells treated with an agonist.
FIG. 8 is a graph of number of hair follicles formed from human fetal cell cultures in the Aderans Hair Patch Assay™ in untreated or treated cells at the indicated cell culture passage.
FIG. 9 is a graph of the number of hair follicles formed from human fetal cell cultures in the Aderans Hair Patch Assay™ in the indicated medium.
as §1
We have recently extended our study of the impact of SHH pathway agonist B (CUR-0236715) on hair inducing activity from human adult cells to human fetal cells, as well as mouse cells.
In another experiment, cells were initially cultured in medium without SHH pathway agonist. The SHH pathway agonist CUR-0236715 was only added to the culture at the beginning of a particular passage, and lasted for that passage only (P1 and P4 as shown in FIG. 8). Adding SHH pathway agonist B (CUR-0236715) at these later passages can still increase fetal cell trichogenicity.

Structure (SMILES)	size of hair follicles compared to non-treated cells [1]	activity as indicated by the number of hair follicles formed in patch assay ([1]; preliminary data, FIG. 10)	adverse effect on cell growth or yield (dermal cells; all the concentrations tested, FIG. 5)	short term results versus continuous treatment (human adult dermal cells; 7 day treatment only)	optimal concentration for hair follicle formation (human adult dermal cells; continuous treatment, at P2, FIG. 4B) [µg/mL]	hair follicle number in patch assays (human adult dermal cells; continuous treatment, various agonist concentrations, FIG. 4)	hair follicle numbers compared to the control (human adult dermal cells; short-term treatment (7 days before harvest), 0.0125-0.15 ug/ml, P1 or P2, 3 patient samples, FIGS. 6A and 6B)	optimal concentration (human adult dermal cells; short-term treatment (7 days), P1 and P2 cells) [µg/mL]	increase in hair number (human fetal cells; 37.5 ng/ml at P0, FIG. 7)	effect on hair number (human fetal cells; Amniomax, Chang's media and culture medium of Osada et al.)	effect on hair number (human fetal cells; agonist added to cell culture medium)	number of hair follicles versus cells consistently treated throughout the culture (human fetal cells; agonist only at P1 or P4)	number of hair follicles formed versus no SHH control cells (human fetal cells; agonist only at P1 or P4, for that passage only, FIG. 8)	increase of hair number at later passages (human fetal cells; cells continuously cultured in the presence of agonist, FIG. 7)	cell growth rate (dermal cells; in the higher concentrations, FIG. 3)	hair follicles in the patch assay (per million cells injected) compared to non-treated cells (human adult dermal cells; cells grown in medium with agonist, 0.005-0.625 ug/ml, FIG. 2)	trichogenicity with passage (P1 through P4) (human adult dermal cells; highest concentration, without agonist trichogenicity diminished)	dose-response relationship of hair follicle number in patch assay (human adult dermal cells; increasing agonist concentration in the medium)
CNC1CCC(N(Cc2cc(-c3ccc(NS(C)(=O)=O)nc3)ccc2OC)C(=O)c2sc3c(F)ccc(F)c3c2Cl)CC1 (stereo not drawn) [agonist B]	increased significantly	increased activity	did not show any adverse effect	comparable to that of continuous treatment	0.0375	increased hair follicle number	higher hair follicle numbers	0.0375	more than 3 fold	not significant	increase of hair number	equivalent	about 5 fold	extended to later passages (P3)				
CNC1CCC(N(Cc2cc(-c3ccccc3)ccc2OC)C(=O)c2sc3ccccc3c2Cl)CC1 (stereo not drawn) [agonist A]															decreases	produced more hair follicles	remained at a high level	increasing effect (hair follicle number in patch assay) with increasing Shh pathway agonist concentration
